Results: ChEMBL document CHEMBL1128962, “Serotoninergic 5-HT3 and 5-HT4 receptor activities of dihydrobenzofuran carboxylic acid derivatives” (Bioorg Med Chem Lett, 1996)

Key:
[1] = target: T1, 5-hydroxytryptamine receptor 4 (Rattus norvegicus, UniProt Q62758); assay: In vitro relaxation of carbachol pre-contracted rat oesophageal TMM.; assay type: functional
[2] = target: T1, 5-hydroxytryptamine receptor 4; assay: Binding affinity at 5-hydroxytryptamine 4 receptor in rat striatum by [3H]GR-113808 displacement.; assay type: tissue-based
[3] = target: T2, Serotonin 3 (5-HT3) receptor (Rattus norvegicus, UniProt P35563+Q9JJ16); assay: Binding affinity at 5-hydroxytryptamine 3 receptor in rat entorhinal cortex by [3H]BRL-43694 displacement.; assay type: tissue-based
T2 sequence (P35563 whole entry): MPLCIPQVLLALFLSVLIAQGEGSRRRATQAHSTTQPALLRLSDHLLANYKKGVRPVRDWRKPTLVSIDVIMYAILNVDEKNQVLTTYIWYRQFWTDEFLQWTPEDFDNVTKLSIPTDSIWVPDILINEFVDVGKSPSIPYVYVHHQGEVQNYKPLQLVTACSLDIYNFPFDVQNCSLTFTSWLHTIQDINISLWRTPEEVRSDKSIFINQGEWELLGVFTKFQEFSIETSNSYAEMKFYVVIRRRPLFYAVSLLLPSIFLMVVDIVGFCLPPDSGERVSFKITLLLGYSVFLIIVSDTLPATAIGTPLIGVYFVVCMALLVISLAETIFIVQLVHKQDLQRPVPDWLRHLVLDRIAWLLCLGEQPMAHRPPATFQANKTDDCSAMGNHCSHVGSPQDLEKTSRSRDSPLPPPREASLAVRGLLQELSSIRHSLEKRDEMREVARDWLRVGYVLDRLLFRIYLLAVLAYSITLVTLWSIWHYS
T2 sequence (Q9JJ16 whole entry): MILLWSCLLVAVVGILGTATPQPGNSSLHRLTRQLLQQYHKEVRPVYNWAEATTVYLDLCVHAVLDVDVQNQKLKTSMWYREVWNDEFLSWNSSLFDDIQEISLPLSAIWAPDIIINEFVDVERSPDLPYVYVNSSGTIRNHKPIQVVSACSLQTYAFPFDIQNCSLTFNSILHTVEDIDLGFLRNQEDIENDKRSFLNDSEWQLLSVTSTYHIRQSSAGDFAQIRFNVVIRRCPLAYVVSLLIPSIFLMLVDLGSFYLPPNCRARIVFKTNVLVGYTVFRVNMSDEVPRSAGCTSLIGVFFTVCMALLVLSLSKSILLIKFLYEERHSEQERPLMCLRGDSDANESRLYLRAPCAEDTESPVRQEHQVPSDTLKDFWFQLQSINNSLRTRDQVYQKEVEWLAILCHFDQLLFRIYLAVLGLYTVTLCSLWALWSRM

[4] = target: 5-hydroxytryptamine receptor 4 (Rattus norvegicus) (UniProt Q62758); assay: In vitro 5-hydroxytryptamine 4 receptor activity by using carbachol-precontracted esophageal tunica muscularis mucosae.
5-hydroxytryptamine receptor 4 (Rattus norvegicus), sequence (Q62758 whole entry): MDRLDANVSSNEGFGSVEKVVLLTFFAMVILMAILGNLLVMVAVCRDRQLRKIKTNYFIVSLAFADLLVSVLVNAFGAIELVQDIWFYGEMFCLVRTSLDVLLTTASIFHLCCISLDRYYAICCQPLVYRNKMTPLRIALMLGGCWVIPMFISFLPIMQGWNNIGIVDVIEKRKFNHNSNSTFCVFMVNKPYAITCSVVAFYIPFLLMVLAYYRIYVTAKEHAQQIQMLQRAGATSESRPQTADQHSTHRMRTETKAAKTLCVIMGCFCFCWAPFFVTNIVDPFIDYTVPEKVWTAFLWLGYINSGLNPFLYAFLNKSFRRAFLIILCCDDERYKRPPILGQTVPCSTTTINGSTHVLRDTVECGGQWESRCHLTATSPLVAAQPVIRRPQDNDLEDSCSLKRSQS

[5] = target: Serotonin 3 (5-HT3) receptor (Homo sapiens) (UniProt P46098+A5X5Y0+O95264+Q70Z44+Q8WXA8); assay: In vitro 5-hydroxytryptamine 3 receptor activity in guinea pig ileum; assay type: tissue-based; settings: Cavia porcellus, target entry is the homologue from another species
[6] = target: 5-hydroxytryptamine receptor 4 (Rattus norvegicus) (UniProt Q62758); assay: In vitro 5-hydroxytryptamine 4 receptor activity by using carbachol-precontracted esophageal tunica muscularis mucosae; No activity up to 104M concentration

T1 sequence (Q62758 whole entry): as above

SMILES	EC50 [1] [nM]	Ki [2] [nM]	Ki [3] [nM]	Kb [4] [nM]	Kb [5] [nM]	Kb [6] [nM]
Nc1c(Cl)cc(C(=O)OCCN2CCCCC2)c2c1CCO2	2.02	0.94	110			
Nc1c(Cl)cc(C(=O)NCCCN2CCCCC2)c2c1CCO2	19.3	9.6	> 10000			
Nc1ccc(C(=O)N[C@H]2CN3CCC2CC3)c2c1CCO2	> 1000	> 1000	20	> 1000		
Nc1ccc(C(=O)N[C@@H]2CN3CCC2CC3)c2c1CCO2	> 10000	> 1000	1	> 100	44.6	
O=C(N[C@@H]1CN2CCC1CC2)c1cccc2c1OCC2	> 10000	> 1000	1.4	> 1000	40.7	
Nc1c(Cl)cc(C(=O)N[C@H]2CN3CCC2CC3)c2c1CCO2	195	115	1		33.9	
O=C(N[C@H]1CN2CCC1CC2)c1cccc2c1OCC2	> 1000	> 10000	14	> 1000		
CCCCN1CCC(CNC(=O)c2cc(Cl)c(N)c3c2OCC3)CC1	4.49	1.9	57			
CCN(CC)CCNC(=O)c1cc(Cl)c(N)cc1OC [METOCLOPRAMIDE]			490			
CCCCN1CCC(COC(=O)c2cc(Cl)c(N)c3c2OCC3)CC1	1.85	0.13	250			
O=C(N[C@@H]1CN2CCC1CC2)c1cc(Cl)cc2c1OCC2	> 10000	170	1	> 100	21.8	
Nc1c(Cl)cc(C(=O)N[C@@H]2CN3CCC2CC3)c2c1CCO2	18.6	17	0.1		3.8	18.6
O=C(N[C@H]1CN2CCC1CC2)c1cc(Cl)cc2c1OCC2	> 1000	280	1	> 1000	38	
CCCC[N+]12CCC(CC1)[C@@H](NC(=O)c1cc(Cl)c(N)c3c1OCC3)C2	1360	420	10			
Nc1c(Cl)cc(C(=O)NCCN2CCCCC2)c2c1CCO2	35.4	41	380			
Nc1c(Cl)cc(C(=O)OCCCN2CCCCC2)c2c1CCO2	7.43	4.5	1180			
CCCC[N+]12CCC(CC1)[C@H](NC(=O)c1cc(Cl)c(N)c3c1OCC3)C2	8.5	1.9	73			
COc1cc(N)c(Cl)cc1C(=O)N[C@@H]1CN2CCC1CC2	55.9	131	0.11			
